# Results published in US8912144B2, “Method for treating stroke via administration of NEP1-40 and inosine” (Children's Medical Center Corporation, priority 2003, dated 2014).
# Test system: corticospinal neurons (CSNs/CSMNs)
# Experiment: Laser-capture microdissection and Illumina microarray gene expression in corticospinal neurons contralateral to stroke
# Assay type: in vivo, rat
# Settings: for Signal Intensity, Treatment after Stroke: Inosine: CSMNs contralateral to SMA infarct
# Description: In a separate group of animals (n=20), layer V pyramidal cells of the sensorimotor cortex were retrogradely labeled by injecting Alexa-Fluor-488-conjugated cholera toxin B subunit (CTB; 300 U/μl in sterile saline) into the cervical spinal cord. For this, animals were anesthetized with a combination of ketamine and Domitor (medetomidine) and a laminectomy was performed at the cervical level of the spinal cord (C2-C4). CTB was stereotaxically delivered into four sites lateral to the corticospinal tract. Injections (1.3 μl) were spaced 1 mm apart on the rostro-caudal axis, and were made 0.5 mm to the left and right of the midline. After allowing two weeks for transport of the tracer, we performed either sham surgery with no treatment (n=6) or stroke surgery combined with saline (n=3) or inosine (n=4) treatment as described above. Seven days later, animals were decapitated under transient gas anesthesia, brains were removed and rinsed in cold RPMI medium, and a tissue block containing the sensorimotor cortex was dissected and placed in OCT Tissue Tek Medium (Sakura Finetek USA Inc., CA) on dry ice within five minutes of death. Ten μm sections were cut onto precleaned Gold Seal RITE-ON glass slides (Gold Seal Prod-ucts, Portsmouth, N.H.), placed on dry ice, and rapidly stored at −80° C.
# Slide-mounted sections were thawed and dehydrated in RNAse-free ethanol gradients and xylene. Retro-gradely labeled, fluorescent cortical pyramidal cells in the undamaged hemisphere were individually captured using the Arcturus VERITAS system. ≧500 cells were collected from each animal and stored in Arcturus extraction buffer at −80° C. Total RNA was extracted from cells using the Micro-to-Midi TotalRNA Purification System (Invitrogen, Carlsbad Calif.) and double-amplified using the TargetAmp 2-Round Aminoallyl-aRNA Amplification kit 1.0 (Epicentre, Madison, Wis.). Amplified RNA was checked for average fragment length using the Agilent RNA 6000 Nano LabChip kit (Agilent Technologies, Santa Clara, Calif.) and then biotinylated and hybridized (1 μg) on Illumina RatRef-12 Expression BeadChip arrays (Illumina, San Diego Calif.), querying the expression of >22,000 RefSeq-curated rat transcripts. Results were obtained from a total of 15 samples representing 6 untreated controls, 4 animals with stroke treated with saline and 5 animals with stroke treated with inosine. Slides were processed and scanned with Illumina BeadStation platform according to the manufacturer protocol.
# Raw data was analyzed using Bioconductor packages (www.bioconductor.org, (Gentleman et al., 2004)). Low level quality-control analysis was performed using inter-array Pearson correlation and clustering based on variance. Two arrays (1 saline and 1 inosine-treated) were outliers and were excluded from the analysis. Data was normalized using quantile normalization, and analysis of differential expression was performed using a linear model fitting (LIMMA package, (Smyth, 2005). Differentially expressed genes were classified according to gene ontology using Bioconductor packages and online tools (DAVID, http://david.abcc.ncifcrf.gov/). Pathway analysis was carried out using Ingenuity Pathway Analysis (Ingenuity Systems, www.ingenuity.com).
structure (smiles),measurement,setting,value
OC[C@H]1O[C@@H](n2cnc3c(O)ncnc32)[C@H](O)[C@@H]1O [inosine],Signal Intensity Inosine,Lgals3bp ILMN_60037,629
same,"Fold-Induction Stroke, ino vs. cntrl",Man2b1 ILMN_65999,2.64
same,Signal Intensity Inosine,Man2b1 ILMN_65999,1676
same,"Fold-Induction Stroke, ino vs. cntrl",Map2k6 ILMN_53013,1.19
same,Signal Intensity Inosine,Map2k6 ILMN_53013,3981
same,"Fold-Induction Stroke, ino vs. cntrl",Mt1a ILMN_53575,3.68
same,Signal Intensity Inosine,Mt1a ILMN_53575,3267
same,"Fold-Induction Stroke, ino vs. cntrl",Nfkbia ILMN_49934,2.69
same,Signal Intensity Inosine,Nfkbia ILMN_49934,3250
same,"Fold-Induction Stroke, ino vs. cntrl",Oplah ILMN_65374,2.05
same,Signal Intensity Inosine,Oplah ILMN_65374,2440
same,"Fold-Induction Stroke, ino vs. cntrl",Pfc ILMN_56164,2.02
same,Signal Intensity Inosine,Pfc ILMN_56164,1375
same,"Fold-Induction Stroke, ino vs. cntrl",Pkn1 ILMN_63766,1.69
same,Signal Intensity Inosine,Pkn1 ILMN_63766,2365
same,"Fold-Induction Stroke, ino vs. cntrl",Plcd1 ILMN_50502,1.90
same,Signal Intensity Inosine,Plcd1 ILMN_50502,1514
same,"Fold-Induction Stroke, ino vs. cntrl",Plek ILMN_57609,2.99
same,Signal Intensity Inosine,Plek ILMN_57609,1937
same,"Fold-Induction Stroke, ino vs. cntrl",Pnck ILMN_66828,1.65
same,Signal Intensity Inosine,Pnck ILMN_66828,8946
same,"Fold-Induction Stroke, ino vs. cntrl",Polrmt ILMN_59207,1.52
same,Signal Intensity Inosine,Polrmt ILMN_59207,1219
same,"Fold-Induction Stroke, ino vs. cntrl",Ppp1r14b ILMN_59774,2.26
same,Signal Intensity Inosine,Ppp1r14b ILMN_59774,2071
same,"Fold-Induction Stroke, ino vs. cntrl",Ptpn6 ILMN_61314,3.52
same,Signal Intensity Inosine,Ptpn6 ILMN_61314,957
same,"Fold-Induction Stroke, ino vs. cntrl",Ptprr ILMN_55987,1.04
same,Signal Intensity Inosine,Ptprr ILMN_55987,676
same,"Fold-Induction Stroke, ino vs. cntrl",RGD1309326 ILMN_60781,1.43
same,Signal Intensity Inosine,RGD1309326 ILMN_60781,2333
same,"Fold-Induction Stroke, ino vs. cntrl",RT1-Da ILMN_59933,11.11
same,Signal Intensity Inosine,RT1-Da ILMN_59933,3072
same,"Fold-Induction Stroke, ino vs. cntrl",Rbl2 ILMN_59080,1.30
same,Signal Intensity Inosine,Rbl2 ILMN_59080,1060
same,"Fold-Induction Stroke, ino vs. cntrl",Rfx1 ILMN_50833,1.51
same,Signal Intensity Inosine,Rfx1 ILMN_50833,4995
same,"Fold-Induction Stroke, ino vs. cntrl",Rhoj ILMN_58882,2.67
same,Signal Intensity Inosine,Rhoj ILMN_58882,588
same,"Fold-Induction Stroke, ino vs. cntrl",Rhot2 ILMN_62537,1.68
same,Signal Intensity Inosine,Rhot2 ILMN_62537,1112
same,"Fold-Induction Stroke, ino vs. cntrl",Rnaset2 ILMN_55431,2.31
same,Signal Intensity Inosine,Rnaset2 ILMN_55431,7227
same,"Fold-Induction Stroke, ino vs. cntrl",Serpinb1a ILMN_57422,2.68
same,Signal Intensity Inosine,Serpinb1a ILMN_57422,589
same,"Fold-Induction Stroke, ino vs. cntrl",Serping1 ILMN_60046,3.19
same,Signal Intensity Inosine,Serping1 ILMN_60046,1251
same,"Fold-Induction Stroke, ino vs. cntrl",Sgpp1 ILMN_57304,0.44
same,Signal Intensity Inosine,Sgpp1 ILMN_57304,316
same,"Fold-Induction Stroke, ino vs. cntrl",Slc9a1 ILMN_53105,1.32
same,Signal Intensity Inosine,Slc9a1 ILMN_53105,2100
same,"Fold-Induction Stroke, ino vs. cntrl",Slc35b4 ILMN_68450,1.41
same,Signal Intensity Inosine,Slc35b4 ILMN_68450,430
same,"Fold-Induction Stroke, ino vs. cntrl",Smoc2 ILMN_60870,3.79
same,Signal Intensity Inosine,Smoc2 ILMN_60870,1123
same,"Fold-Induction Stroke, ino vs. cntrl",Soc ILMN_57817,1.36
same,Signal Intensity Inosine,Soc ILMN_57817,1341
same,"Fold-Induction Stroke, ino vs. cntrl",Srebf1 ILMN_51834,1.47
same,Signal Intensity Inosine,Srebf1 ILMN_51834,1069
same,"Fold-Induction Stroke, ino vs. cntrl",Tcirg1 ILMN_52949,2.81
same,Signal Intensity Inosine,Tcirg1 ILMN_52949,2173
same,"Fold-Induction Stroke, ino vs. cntrl",Timp1 ILMN_62559,3.57
same,Signal Intensity Inosine,Timp1 ILMN_62559,2293
same,"Fold-Induction Stroke, ino vs. cntrl",Tle2 ILMN_54011,3.03
same,Signal Intensity Inosine,Tle2 ILMN_54011,2295
same,"Fold-Induction Stroke, ino vs. cntrl",Tm6p1 ILMN_57902,1.99
same,Signal Intensity Inosine,Tm6p1 ILMN_57902,1532
same,"Fold-Induction Stroke, ino vs. cntrl",Trim39 ILMN_54591,1.35
same,Signal Intensity Inosine,Trim39 ILMN_54591,1351
same,"Fold-Induction Stroke, ino vs. cntrl",Unc93b ILMN_53114,2.10
same,Signal Intensity Inosine,Unc93b ILMN_53114,600
same,"Signal Intensity, Treatment after Stroke: Inosine",gene P2rxl1 (ILMN_68585),246
same,"Signal Intensity, Treatment after Stroke: Inosine",gene Tm7sf2 (ILMN_58100),419
